We go through 14 compounds from patent publication US10611740B2, “Aryl dihydro-2H-benzo[b][1,4]oxazine sulfonamide and related compounds for use as agonists of RORγ and the treatment of disease” (Lycera Corporation, priority 2015, dated 2020).

Experiment [1] deals with T1, RORγ-LBD (Homo sapiens, UniProt P51449).
T1 construct: made in house; host or cells: SF9 cells (baculovirus)
T1 sequence (P51449 269-508 limits assumed): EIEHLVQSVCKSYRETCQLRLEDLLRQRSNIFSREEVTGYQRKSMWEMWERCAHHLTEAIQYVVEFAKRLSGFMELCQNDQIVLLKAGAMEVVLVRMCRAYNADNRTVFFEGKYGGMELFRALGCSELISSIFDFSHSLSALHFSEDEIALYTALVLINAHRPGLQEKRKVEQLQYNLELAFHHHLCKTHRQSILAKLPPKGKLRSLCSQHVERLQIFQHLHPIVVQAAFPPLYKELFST
In words: RORγ-Ligand Binding Domain (LBD) TR-FRET Assay.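 For TR-FRET Assay Max Response: 665/615 nm ratio relative to signal without ursolic acid or compound set at 100.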 In kind it is biochemical. An outline of the steps: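 Lysate from SF9 cells expressing His-RORγ-LBD is diluted to about 3 nM final in 50 mM Tris pH 7.0 assay buffer. A biotin-tagged SRC1 LXXLL peptide goes in at 200 nM final, plus ursolic acid at 2 μM final. Test compounds carry 1% DMSO final; signal read by TR-FRET.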

Experiment [2] addresses T2, Gal4-RORγ-LBD (Homo sapiens, UniProt P51449).
T2 construct: expressed in transfected cells; host or cells: HEK-293 cells (pcDNA3.1neo plasmid)
T2 sequence (P51449 269-508 limits assumed): T1 sequence (P51449 269-508 limits assumed)
In words: Gal4-RORγ Luciferase Reporter Assay in HEK-293T Cells. In kind it is cell-based. The note with it: HEK-293 cells. A digest of the protocol:
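In transfected HEK-293 cells (Gal4-RORγ-LBD, Gal4-luciferase), test agents with 2 μM ursolic acid were incubated overnight at 37 °C before luminescent detection. Values are relative to the ursolic-acid-free, compound-free signal (100).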

The mark [3] stands for this setting: luciferase reporter, with 2 μM ursolic acid.

For the compound `CN(C)c1cncc(-c2ccc3c(c2)N(S(=O)(=O)c2cccc(C(F)(F)F)c2)C[C@H](CCC(=O)O)O3)n1` [Compound 4AL, (S)-3-(6-(6-(dimethylamino)-pyrazin-2-yl)-4-((3-(trifluoromethyl)phenyl)-sulfonyl)-3,4-dihydro-2H-benzo[b][1,4]oxazin-2-yl)propanoic acid], in experiment [1], the EC50 is below 500 nM and the “TR-FRET Assay Max Response” value was “**** (The symbol “****” indicates a value greater than 200)”. Besides, in experiment [2] (setting [3]), the EC50 was below 500 nM and the “Gal4-RORγ Assay Max Response” value is given as “** (The symbol “**” indicates a value in the range of greater than 90 to 150)”.

Consider `O=C(O)C1CCN(C(=O)CC[C@H]2CN(S(=O)(=O)c3cccc(C(F)(F)F)c3)c3cc(-c4cccc(F)c4F)ccc3O2)CC1` [Compound 23P, (S)-1-(3-(6-(2,3-difluorophenyl)-4-((3-(trifluoromethyl)-phenyl)sulfonyl)-3,4-dihydro-2H-benzo[b][1,4]oxazin-2-yl)propanoyl)piperidine-4-carboxylic acid], for which, in experiment [1], the EC50 is below 500 nM and the “TR-FRET Assay Max Response” value is reported as “**** (The symbol “****” indicates a value greater than 200)”. Also, in experiment [2] (setting [3]), the EC50 was below 500 nM and the “Gal4-RORγ Assay Max Response” value was “*** (The symbol “***” indicates a value in the range of greater than 150 to 200)”.

In the case of `O=C(O)CC[C@H]1CN(S(=O)(=O)c2cccc(C(F)(F)F)c2)c2cc(-c3ccccc3C(F)(F)F)ccc2O1` [Compound 2BM, (S)-3-(6-(2-(trifluoromethyl)-phenyl)-4-((3-(trifluoromethyl)-phenyl)sulfonyl)-3,4-dihydro-2H-benzo[b][1,4]oxazin-2-yl)propanoic acid], in experiment [1], the EC50 was below 500 nM and the “TR-FRET Assay Max Response” value is recorded as “*** (The symbol “***” indicates a value in the range of greater than 150 to 200)”. For the same compound, in experiment [2] (setting [3]), the EC50 was in the range of 500 to 5000 nM and the “Gal4-RORγ Assay Max Response” value was “** (The symbol “**” indicates a value in the range of greater than 90 to 150)”.

`O=C(O)CC[C@H]1CN(S(=O)(=O)c2cccc(C(F)(F)F)c2)c2cc(-c3cc(Cl)ccc3F)ccc2O1` [Compound 2C, (S)-3-(6-(5-chloro-2-fluorophenyl)-4-((3-(trifluoromethyl)phenyl)-sulfonyl)-3,4-dihydro-2H-benzo[b][1,4]oxazin-2-yl)propanoic acid]: in experiment [1], the EC50 is below 500 nM and the “TR-FRET Assay Max Response” value is “*** (The symbol “***” indicates a value in the range of greater than 150 to 200)”. In experiment [2] (setting [3]), the concentration for a half-maximal effect (EC50) is below 500 nM and the “Gal4-RORγ Assay Max Response” value was “** (The symbol “**” indicates a value in the range of greater than 90 to 150)”.

For `COc1ccnc(-c2ccc3c(c2)N(S(=O)(=O)c2cccc(C(F)(F)F)c2)C[C@H](CCC(=O)O)O3)c1` [Compound 4F, (S)-3-(6-(4-methoxypyridin-2-yl)-4-((3-(trifluoromethyl)-phenyl)sulfonyl)-3,4-dihydro-2H-benzo[b][1,4]oxazin-2-yl)propanoic acid], in experiment [1], the EC50 is below 500 nM and the “TR-FRET Assay Max Response” value is listed as “**** (The symbol “****” indicates a value greater than 200)”. Also, in experiment [2] (setting [3]), the EC50 is 500 to 5000 nM and the “Gal4-RORγ Assay Max Response” value is on record as “** (The symbol “**” indicates a value in the range of greater than 90 to 150)”.

Consider `O=C(O)C1(C[C@H]2CN(S(=O)(=O)c3cccc(C(F)(F)F)c3)c3cc(-c4cc(F)cc(F)c4Cl)ccc3O2)COC1` [Compound 51B, (S)-3-((6-(2-chloro-3,5-difluoro-phenyl)-4-((3-(trifluoromethyl)-phenyl)sulfonyl)-3,4-dihydro-2H-benzo[b][1,4]oxazin-2-yl)methyl)oxetane-3-carboxylic acid], for which, in experiment [1], the EC50 was below 500 nM and the “TR-FRET Assay Max Response” value is listed as “*** (The symbol “***” indicates a value in the range of greater than 150 to 200)”. For the same compound, in experiment [2] (2 μM ursolic acid), the EC50 was below 500 nM and the “Gal4-RORγ Assay Max Response” value is recorded as “** (The symbol “**” indicates a value in the range of greater than 90 to 150)”.

For the compound `C[C@](O)(CC[C@H]1CN(S(=O)(=O)c2cccc(C(F)(F)F)c2)c2cc(-c3cc(F)ccc3F)ccc2O1)C(=O)O` [Compound 39, (S)-4-((S)-6-(2,5-difluorophenyl)-4-((3-(trifluoromethyl)phenyl)sulfonyl)-3,4-dihydro-2H-benzo[b][1,4]oxazin-2-yl)-2-hydroxy-2-methylbutanoic acid], in experiment [1], the EC50 was below 500 nM and the “TR-FRET Assay Max Response” value is on record as “**** (The symbol “****” indicates a value greater than 200)”. In addition, in experiment [2] (setting [3]), the EC50 is below 500 nM and the “Gal4-RORγ Assay Max Response” value is “** (The symbol “**” indicates a value in the range of greater than 90 to 150)”.

As to `C[C@](O)(C(=O)NC[C@H]1CN(S(=O)(=O)c2cccc(C(F)(F)F)c2)c2cc(-c3cc(F)ccc3F)ccc2O1)C(F)(F)F` [Compound 30W, (S)-N-(((S)-6-(2,5-difluoro-phenyl)-4-((3-(trifluoromethyl)-phenyl)sulfonyl)-3,4-dihydro-2H-benzo[b][1,4]oxazin-2-yl)methyl)-3,3,3-trifluoro-2-hydroxy-2-methylpropanamide], in experiment [1], the EC50 is below 500 nM and the “TR-FRET Assay Max Response” value is listed as “**** (The symbol “****” indicates a value greater than 200)”. Also, in experiment [2] (setting [3]), the EC50 was below 500 nM and the “Gal4-RORγ Assay Max Response” value is given as “** (The symbol “**” indicates a value in the range of greater than 90 to 150)”.

`CN(C)c1cccc(-c2ccc3c(c2)N(S(=O)(=O)c2cccc(C(F)(F)F)c2)C[C@H](CCNC(=O)C(C)(C)O)O3)n1` [Compound 30A, (S)-N-(2-(6-(6-(dimethylamino)-pyridin-2-yl)-4-((3-(trifluoro-methyl)phenyl)sulfonyl)-3,4-dihydro-2H-benzo[b][1,4]-oxazin-2-yl)ethyl)-2-hydroxy-2-methylpropanamide]: in experiment [1], the EC50 was below 500 nM and the “TR-FRET Assay Max Response” value was “**** (The symbol “****” indicates a value greater than 200)”. Besides, in experiment [2] (setting [3]), the EC50 is below 500 nM and the “Gal4-RORγ Assay Max Response” value is recorded as “* (The symbol “*” indicates a value in the range of 25 to 90)”.

For `CC(C)(O)C(=O)NC[C@H]1CN(S(=O)(=O)c2cccc(C(F)(F)F)c2)c2cc(-c3cccc(C(F)(F)F)n3)ccc2O1` [Compound 30I, (S)-2-hydroxy-2-methyl-N-((4-((3-(trifluoromethyl)phenyl)-sulfonyl)-6-(6-(trifluoromethyl)-pyridin-2-yl)-3,4-dihydro-2H-benzo[b][1,4]oxazin-2-yl)methyl)propanamide], in experiment [1], the EC50 was below 500 nM and the “TR-FRET Assay Max Response” value is recorded as “**** (The symbol “****” indicates a value greater than 200)”. In addition, in experiment [2] (setting [3]), the EC50 was below 500 nM and the “Gal4-RORγ Assay Max Response” value is recorded as “* (The symbol “*” indicates a value in the range of 25 to 90)”.

Regarding `O=C(O)CC[C@H]1CN(S(=O)(=O)c2cccc(C(F)(F)F)c2)c2cc(-c3cccc(Cl)c3F)c(Cl)cc2O1` [Compound 22J, (S)-3-(7-chloro-6-(3-chloro-2-fluorophenyl)-4-((3-(trifluoro-methyl)phenyl)sulfonyl)-3,4-dihydro-2H-benzo[b][1,4]oxazin-2-yl)propanoic acid], in experiment [1], the EC50 was below 500 nM and the “TR-FRET Assay Max Response” value was “*** (The symbol “***” indicates a value in the range of greater than 150 to 200)”. Also, in experiment [2] (2 μM ursolic acid), the EC50 is below 500 nM and the “Gal4-RORγ Assay Max Response” value was “** (The symbol “**” indicates a value in the range of greater than 90 to 150)”.

`CC(C)c1cccc(S(=O)(=O)N2C[C@H](CCc3n[nH]c(=O)o3)Oc3ccc(-c4cccc(N(C)C)n4)cc32)c1` [Compound 28F, (S)-5-(2-(6-(6-(dimethylamino)-pyridin-2-yl)-4-((3-isopropyl-phenyl)sulfonyl)-3,4-dihydro-2H-benzo[b][1,4]oxazin-2-yl)ethyl)-1,3,4-oxadiazol-2(3H)-one]: in experiment [1], the EC50 was below 500 nM and the “TR-FRET Assay Max Response” value is listed as “**** (The symbol “****” indicates a value greater than 200)”. In experiment [2] (setting [3]), the EC50 is below 500 nM and the “Gal4-RORγ Assay Max Response” value is on record as “** (The symbol “**” indicates a value in the range of greater than 90 to 150)”.

For the compound `CCc1ccccc1-c1ccc2c(c1)N(S(=O)(=O)c1cccc(C(F)(F)F)c1)C[C@H](CCC(=O)O)O2` [Compound 2BD, (S)-3-(6-(2-ethylphenyl)-4-((3-(trifluoromethyl)phenyl)sulfonyl)-3,4-dihydro-2H-benzo[b][1,4]oxazin-2-yl)propanoic acid], in experiment [1], the EC50 was below 500 nM and the “TR-FRET Assay Max Response” value was “**** (The symbol “****” indicates a value greater than 200)”. For the same compound, in experiment [2] (setting [3]), the EC50 was below 500 nM and the “Gal4-RORγ Assay Max Response” value is recorded as “** (The symbol “**” indicates a value in the range of greater than 90 to 150)”.

As for `CC(C)(CC[C@H]1CN(S(=O)(=O)c2cccc(C(F)(F)F)c2)c2cc(-c3cc(F)ccc3F)ccc2O1)C(=O)O` [Compound 32A, (S)-4-(6-(2,5-difluorophenyl)-4-((3-(trifluoromethyl)phenyl)-sulfonyl)-3,4-dihydro-2H-benzo[b][1,4]oxazin-2-yl)-2,2-dimethylbutanoic acid], in experiment [1], the EC50 is below 500 nM and the “TR-FRET Assay Max Response” value was “**** (The symbol “****” indicates a value greater than 200)”. In experiment [2] (setting [3]), the EC50 is below 500 nM and the “Gal4-RORγ Assay Max Response” value was “** (The symbol “**” indicates a value in the range of greater than 90 to 150)”.
